From patent US20110281950A1, “COMPOSITIONS AND METHODS FOR REDUCING PROLIFERATION AND VIABILITY OF LYMPHOBLASTOID CELLS” (priority 2010, published 2011)
Like-named read-outs stand apart in the source and are kept apart here.

Tests used:
Type in all cases: cell-based
[1] = system: NK cell-driven antibody dependent cellular cytotoxicity (ADCC) against target B cells; assay: NK cell-driven ADCC, four hour 51Cr release assay (Example 3)
Experimental: (§1) The effects of AR-42 on EBV-specific cytotoxic T cell (CTL) cytotoxicity were assessed in vitro. Peripheral blood mononuclear cells (PBMC) and autologous EBV+ LCL were co-culturing in media containing IL-2 (50 μM) and either DSMO (control) or AR-42 (100 nM). EBV-specific CTLs were identified with anti-CD8 mAb and HLAB8-RAK tetramer, upon a 12 day expansion, the results of which are shown in FIG. 10. […] At day 13, the EBV-specific CTLs were incubated overnight in 100, 250, & 500 nM AR-42+IL-2 (50 μM). The next day, a four hour ^51Cr release assay was performed on each incubated sample in order to access the effects of AR-42 on EBV-specific cytotoxic T cell (CTL) cytotoxicity. This is shown schematically in FIG. 2, which illustrates autologous target EBV+ LCLs are labeled with ^51Cr, which is actively internalized by each cell via pumps in its membrane; effector CTLs are counted and plated at desired effector-target ratios; labeled targets are incubated with effectors for four hours; and lysed targets release intracellular ^51Cr into the supernatant, which is harvested and analyzed for radioactivity using a gamma counter. Effector-target ratios of 50:1, 25:1, and 12.5:1 were used.
The effects of AR-42 on NK cell-driven antibody dependent cellular cytotoxicity (ADCC) were assessed in vitro. NK cells were treated overnight with AR-42 (100 nM, 250 nM, 500 nM) or Rituximab (anti-CD20) or Herceptin (anti-erbB2). Rituximab (anti-CD20) was the antibody of choice for the assay because of its wide clinical use and proven efficacy against B cell lymphomas that express CD20 antigen. Herceptin (anti-erbB2), a commonly used breast cancer drug, was used as a negative control. The effect of AR-42 on NK cell-driven antibody dependent cellular cytotoxicity (ADCC) was assessed using a four hour ^51Cr release assay. The four hour ^51Cr release assay was performed as described with respect to Example 2A, except that effector-target ratios of 25:1, 12.5:1, & 6.25:1 were used.

[2] = system: EBV+ transformed B lymphoblastoid cell lines (EBV+ LCL); assay: Viability of EBV+ LCL cultured with HDAC inhibitors, annexin/PI staining and flow cytometry (Example 1)
Experimental: Cell viability was then analyzed every 24 hours by annexin/PI staining and flow cytometry.

[3] = system: Purified NK cells; assay: NK cell IFNγ and GzB ELISPOT (Example 5); conditions: for NK cell GzB, ELISPOT: untreated control 91 spots; for NK cell IFNγ, ELISPOT: untreated control 314 spots
Experimental: Purified NK cells were initially treated overnight (NK) with 100 nM, 250 nM or 500 nM AR-42. The NK cells were further stimulated using inflammatory cytokines cytokines IL-2 (50 pM) and IL-12 (10 ng/ml) in an ELISPOT assay to determine IFNγ and GzB secretion potentials. Results were quantified by an ELISPOT analyzer.

[4] = system: Activated EBV-specific T cells; assay: T cell ELISPOT with and without AR-42 washout (Example 6); conditions: long-term exposure, 500 nM
Experimental: Activated EBV-specific T cells expanded in the presence of AR-42 were further incubated in media with and without AR-42. After 5 days, the T cells were stimulated with EBV+ LCLs in an ELISPOT assay to determine IFNγ and GzB secretion potentials.

[5] = system: EBV-specific cytotoxic T cell (CTL) cytotoxicity against autologous EBV+ LCLs; assay: EBV-specific CTL cytotoxicity, four hour 51Cr release assay (Example 2)
Experimental: as §1

[6] = system: EBV+ LCLs; assay: Cell surface protein expression on EBV+ LCLs, flow cytometry (Example 8)
[7] = system: Purified NK cells; assay: NK cell IFNγ ELISPOT, continuous treatment or washout (Example 7); conditions: control 569 spots
Description: (§2) Purified NK cells in DMSO were used as a control. The cells were subsequently analyzed in an IFNγ ELISPOT assay or a ^51Cr release cytotoxicity assay.

[8] = system: purified CD56+ NK cells; assay: Cell surface protein expression on NK cells, flow cytometry (Example 8); conditions: 24 hours; for expression of activating NK cell receptor NKG2D: AR-42 100, 500 nM, SAHA 100, 1000 nM
Description: The mechanism by which HDAC inhibition affects NK cell-driven ADCC was investigated in vitro. […] Viable cells were then collected and stained with monoclonal antibodies specific for cell surface proteins with known stimulatory (NKG2D, FcγRIII) or inhibitory (KIR) activity. Protein expression was then quantified via flow cytometry.

[9] = system: Purified NK cells; assay: NK cell 51Cr release cytotoxicity assay, continuous treatment or washout (Example 7); conditions: control 64%
Description: as §2

[10] = system: LCLs (C7M3, DC9); assay: Viability and proliferation of lymphoblastoid cell lines (Example 1A); conditions: 100, 250, 500, 750 and 1000 nM
Experimental: The effects of AR-42 on the viability and proliferation of lymphoblastoid cell lines was determined. […] Cell viability was analyzed by annexin/PI staining and flow cytometry. Cell counts were measured at day 5. The results are seen in FIGS. 14A and 14B. In FIGS. 14A and 14B, the standard deviation represents the results from triplicate experiments.

[11] = system: EBV-specific CD8+ T-cells; assay: EBV-specific T-cell expansion, RAK tetramer (Example 2A); conditions: 100, 250, 500 nM, two weeks co-culture with irradiated LCLs
Experimental: The effect of AR-42 on EBV-specific T-cell expansion was determined. Irradiated LCLs were added to purified PBMCs and maintained in co-culture for two weeks with AR-42 (100 nM, 250 nM, 500 nM). After two weeks, the EBV-specific T-cell expansion was measured using the RAK tetramer. This tetramer contains the […] peptide which binds the HLA-B8 MHC type I epitope, and can be used to identify EBV-specific (BZLF1 specific) CD8+ T-cells.

[12] = system: Activated EBV-specific T cells; assay: T cell IFNγ and GzB ELISPOT (Example 4); conditions: 4 days; for T cell IFNγ secretion, ELISPOT: untreated control 98 spots; for T cell GzB secretion, ELISPOT: untreated control 107 spots
Experimental: The production of proteins associated with the T cell cytotoxic response (interferon-γ, granzyme B) was determined in vitro. Activated EBV-specific T cells were initially treated for 4 days (T) with 100 nM or 500 nM AR-42 and further stimulated with EBV+ LCLs (effector-target ratio: 1:1) in an ELISPOT assay to determine IFNγ and GzB secretion potentials. Release of interferon-gamma (IFNγ) or granzyme B (GzB) was visualized using monoclonal IFNγ/GzB antibodies with BCIP/NBT substrate solution. Results were quantified by an enzyme-linked immunosorbent spot assay (ELISPOT) analyzer.

[13] = system: peripheral blood mononuclear cells (PBMCs); assay: PBMC viability, PI staining and flow cytometry (Example 9); conditions: 100, 250, 500, 1000 nM, 2 and 4 days
Experimental: The effect of AR-42 on the viability of peripheral blood mononuclear cells (PBMCs) was determined. PBMCs were isolated from three random donor leukopaks and incubated with AR-42 (100 nM, 250 nM, 500 nM, 1000 nM) for 2 and 4 days. Viability was assessed by PI staining using flow cytometry. All results were normalized relative to untreated DMSO controls. […] The standard deviations in FIG. 15 represent the mean of the three leukopaks.

rituximab: anti-CD20 antibody used for the ADCC assay
relative ADCC ([1]; NK cells not treated with AR-42, effector-target ratio 6.25:1): 52%
relative ADCC ([1]; NK cells not treated with AR-42, effector-target ratio 12.5:1): 56%
relative ADCC ([1]; NK cells not treated with AR-42, effector-target ratio 25:1): 64%

CC(C)C(C(=O)Nc1ccc(C(=O)NO)cc1)c1ccccc1 (stereo not drawn) [AR-42, N-hydroxy-4-(3-methyl-2-phenyl-butyrylamino)-benzamide]
concentration that inhibits EBV+ LCL growth [2]: ≥ 250 nM
viability at day 4 compared with day 2 ([2]; 750 and 1000 nM): higher viability by day 4
viability at 0.25 µM ([2]; Lymphoblastoid cell, 48 h, 250 nM, day 2, read-out: viability of B cell population): 87%
viability at 0.5 µM ([2]; Lymphoblastoid cell, 48 h, 500 nM, day 2, read-out: viability of B cell population): 75%
viability at 0.75 µM ([2]; Lymphoblastoid cell, 48 h, 750 nM, day 2, read-out: viability of B cell population): 62%
viability at 1 µM ([2]; Lymphoblastoid cell, 48 h, 1000 nM, day 2, read-out: viability of B cell population): 54%
NK cell GzB, ELISPOT ([3]; 100 nM overnight): 22 spots
NK cell IFNγ, ELISPOT ([3]; 100 nM overnight): 63 spots
NK cell GzB, ELISPOT ([3]; 250 nM overnight): 7 spots
NK cell IFNγ, ELISPOT ([3]; 250 nM overnight): 10 spots
NK cell GzB, ELISPOT ([3]; 500 nM overnight): 10 spots
NK cell IFNγ, ELISPOT ([3]; 500 nM overnight): 1 spots
cytotoxic function of activated T cells [4]: eventual loss of cytotoxic function
CTL cytotoxicity ([5]; 100 nM overnight, highest effector-target ratio (50:1)): 19%
CTL cytotoxicity ([5]; 250 nM overnight, highest effector-target ratio (50:1)): 12%
CTL cytotoxicity ([5]; 500 nM overnight): −2%
NK cytotoxicity (ADCC) in combination with rituximab ([1]; 100 nM overnight, highest effector-target ratio (25:1)): 36%
NK cytotoxicity (ADCC) in combination with rituximab ([1]; 250 nM overnight, highest effector-target ratio (25:1)): 23%
NK cytotoxicity (ADCC) in combination with rituximab ([1]; 500 nM overnight): 1.1%
Mic A/B (NKG2D ligand) expression on EBV+ LCLs ([6]; 500 nM and 1000 nM, 24 and 48 hours): unaffected
MHC Class I expression (KIR ligand) on EBV+ LCLs ([6]; higher concentrations (500 nM and 1000 nM, 24 and 48 hours)): down modulates
NK cell IFNγ secretion, ELISPOT ([7]; AR-42 100 nM treated): 207 spots
NK cell IFNγ secretion, ELISPOT ([7]; AR-42 100 nM, 24 hour treatment+24 hour washout): 418 spots
NK cell IFNγ secretion, ELISPOT ([7]; AR-42 250 nM treated): 10 spots
NK cell IFNγ secretion, ELISPOT ([7]; AR-42 250 nM, 24 hour treatment+24 hour washout): 235 spots
NK cell IFNγ secretion, ELISPOT ([7]; AR-42 500 nM treated): 6 spots
NK cell IFNγ secretion, ELISPOT ([7]; AR-42 500 nM, 24 hour treatment+24 hour washout): 96 spots
expression of inhibitory receptor KIR on NK cells ([8]; especially at 500 nM): down modulates
expression of activating NK cell receptor NKG2D [8]: down modulate
NK cytotoxic activity ([9]; 100 nM treated, max E:T ratio): 36%
NK cytotoxic activity ([9]; 100 nM, washout): 41%
NK cytotoxic activity ([9]; 250 nM treated, max E:T ratio): 23%
NK cytotoxic activity ([9]; 250 nM, washout): 36%
NK cytotoxic activity ([9]; 500 nM treated, max E:T ratio): 1%
NK cytotoxic activity ([9]; 500 nM, washout): 42%
antiproliferative activity in EBV+ LCL cell lines [10]: antiproliferative activity in EBV+ LCL cell lines in a dose dependent manner
EBV-specific T-cell expansion [11]: decreases EBV-specific T-cell expansion in a dose dependent manner
T cell IFNγ secretion, ELISPOT ([12]; 100 nM): 47 spots
T cell GzB secretion, ELISPOT ([12]; 100 nM): 99 spots
T cell IFNγ secretion, ELISPOT ([12]; 500 nM): 3 spots
T cell GzB secretion, ELISPOT ([12]; 500 nM): 5 spots
viability of PBMCs [13]: decreases the viability of PBMCs in a dose dependent manner

O=C(CCCCCCC(=O)Nc1ccccc1)NO [SAHA, suberoylanilide hydroxamic acid, reference compound]
B cell death ([2]; 250-2000 nM, 4 day incubation): little cell death
viability at 4 µM ([2]; Lymphoblastoid cell, 96 h, 4000 nM, day 4, read-out: viability of B cell population): 69%
NK cell IFNγ secretion, ELISPOT ([7]; SAHA 100 nM treated): 452 spots
NK cell IFNγ secretion, ELISPOT ([7]; SAHA 500 nM treated): 366 spots
NK cell IFNγ secretion, ELISPOT ([7]; SAHA 1000 nM treated): 166 spots
expression of activating NK cell receptor NKG2D [8]: down modulate

CCCC(CCC)C(=O)O [valproate, reference compound]
viability at 2000 µM ([2]; Lymphoblastoid cell, 72 h, 2.0 mM, day 3, read-out: viability of B cell population): 83%
viability at 3000 µM ([2]; Lymphoblastoid cell, 72 h, 3 mM, day 3, read-out: viability of B cell population): 73%
viability at 4000 µM ([2]; Lymphoblastoid cell, 72 h, 4.0 mM, day 3, read-out: viability of B cell population): 63%
viability at 4000 µM ([2]; Lymphoblastoid cell, 96 h, 4 mM, day 4, read-out: viability of B cell population): 71%
NK cell IFNγ secretion, ELISPOT ([7]; valproate 1 mM): 446 spots
NK cell IFNγ secretion, ELISPOT ([7]; valproate 2 mM): 238 spots
